Measurements from patent US7964591B2, “Pyridazine derivatives and their use as therapeutic agents” (Novartis Pharma AG, priority 2003, dated 2011).
Marks after values point to notes of the source that are not given here.

Tests used:
[1] = target: T1, stearoyl-CoA desaturase (SCD) (Mus musculus, UniProt P13516); assay: Stearoyl-CoA desaturase inhibition using mouse liver microsomes (HTS microsomal assay, IC50 follow-up); conditions: % SCD enzyme activity remaining at 10 μM test compound
T1 sequence (P13516 1-355): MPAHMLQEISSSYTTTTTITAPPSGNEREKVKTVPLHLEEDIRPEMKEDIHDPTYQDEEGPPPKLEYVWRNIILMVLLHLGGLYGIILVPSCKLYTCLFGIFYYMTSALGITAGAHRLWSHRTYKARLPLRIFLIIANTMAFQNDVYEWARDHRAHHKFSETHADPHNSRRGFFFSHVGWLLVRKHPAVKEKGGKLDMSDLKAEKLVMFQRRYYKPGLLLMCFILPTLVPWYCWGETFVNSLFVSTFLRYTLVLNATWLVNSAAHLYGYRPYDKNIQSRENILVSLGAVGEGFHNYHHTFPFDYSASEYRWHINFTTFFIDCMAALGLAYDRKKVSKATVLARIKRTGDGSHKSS
Experimental: Livers are immediately rinsed with cold 0.9% NaCl solution, weighed and minced with scissors. All procedures are performed at 4° C. unless specified otherwise. Livers are homogenized in a solution (1:3 w/v) containing 0.25 M sucrose, 62 mM potassium phosphate buffer (pH 7.0), 0.15 M KCl, 1.5 mM N-acetyleysteine, 5 mM MgCl2, and 0.1 mM EDTA using 4 strokes of a Potter-Elvehjem tissue homogenizer. The homogenate is centrifuged at 10,400×g for 20 min to eliminate mitochondria and cellular debris. The supernatant is filtered through a 3-layer cheesecloth and centrifuged at 105,000×g for 60 min. The microsomal pellet is gently resuspended in the same homogenization solution with a small glass/teflon homogenizer and stored at −70° C. The absence of mitochondrial contamination is enzymatically assessed. The protein concentration is measured using bovine serum albumin as the standard.
The tubes are vortexed vigorously and after 15 min incubation in a shaking water bath (37° C.), the reactions are stopped and fatty acids are analyzed.
Fatty acids are analyzed as follows: The reaction mixture is saponified with 10% KOH to obtain free fatty acids which are further methylated using BF3 in methanol. […] Fatty acid methyl esters are separated isocratically with acetonitrile/water (95:5 v:v) at a flow rate of 1 mL/min and are identified by comparison with authentic standards.
The compounds are analyzed with an HTS microsomal assay. The activities are defined in terms of % SCD enzyme activity remaining at the selected concentration (e.g., 10 μM) of the test compounds.

sebaceous glands [2] = assay: Topical LCF369 on sebaceous glands of NMRI mice: minimal treatment period; type: in vivo, female Crl:NMRI mice; conditions: for mean size decrease: 1.0% LCF369 twice daily, vs vehicle
Experimental: (§1) LCF369 is prepared either in a solution of ethanol/propylene glycol (3/7, v/v) or in topical formulations at 1.0, 0.5 or 0.1% for testing in female Crl:NMRI mice. In general, shaved application sites of approximately 2.5 cm^2 on the back of mice are treated twice daily (once on weekends or at study termination) with 50 μl of the LCF369 preparations. To prevent the animals from potential oral uptake of the epicutaneously applied compounds, they are fitted with ruffs and housed individually. After the last application, the animals are euthanised; the treated sites dissected and prepared for histological sections. Hematoxilin/eosin (HE)-stained 3 μm-thick sections are prepared from formalin-fixed, paraffin-embedded tissue. From each animal, one HE-stained section per site is histomorphometrically examined. The entire sections of approximately 10 mm length are evaluated microscopically (200×) for sebaceous glands. The mean size and mean number (per mm^2 dermis) of sectioned alveolar units of the sebaceous glands are determined in a coded fashion with an image analyzer (Axiovision, Zeiss). For statistical analysis, morphometric data are analyzed with a T-test or Mann-Whitney rank sum test. Frozen tissue sections (5 μm) are used for oil red O (lipid) staining.
Groups of 4 mice are treated with 1.0% LCF369 twice daily for 2, 4, 6 and 8 days (i.e. up to 16 applications). Control groups remain untreated or are treated with the vehicle alone twice daily for 8 days.

sebaceous glands [3] = assay: Topical LCF369 on sebaceous glands of NMRI mice: minimal effective concentration; type: in vivo, female Crl:NMRI mice; conditions: LCF369 1.0% (w/v) twice daily, 7 days, mean (SD), 6 animals
Experimental: as §1
LCF369 is tested at 1.0%, 0.5% and 0.1%, groups of 6 mice are treated twice daily for 7 consecutive days. […]

sebaceous glands [4] = assay: Topical LCF369 on sebaceous glands of NMRI mice: evaluation of efficacy; type: in vivo, female Crl:NMRI mice
Experimental: as §1
Groups of 5 mice are treated with 50 μl of 1% or 0.1% LCF369 twice daily (except on weekends, when the animals are treated once daily and on study termination) for 8 days (i.e. 14 applications in total). Four control animals are treated similarly with the vehicle alone. In life, the animals are observed for clinical signs and macroscopic changes of the application sites. One day after the last application, an evaluation is performed. In animals treated with 1.0% LCF369, untreated skin samples distant from the treated sites are also collected in order to assess systemic activity due to percutaneous absorption of LCF369.

sebaceous glands [5] = assay: Topical LCF369 on sebaceous glands of NMRI mice: duration of action; type: in vivo, female Crl:NMRI mice
Experimental: as §1, with “From each animal, one HE-stained section per site is histomorphometrically examined.” left out, “Frozen tissue sections (5 μm) are used for oil red O (lipid) staining.” left out
A 7-day b.i.d. (twice daily) treatment schedule (except on week ends when the animals were treated once daily) with 1.0% LCF369 is applied to groups of 7 mice which are evaluated on days 8 (one day after the 14th application), 24 and 41. […]

sebaceous glands [6] = assay: Topical LCF369 on sebaceous glands of NMRI mice: clinical service form candidates (0.5% formulations); type: in vivo, female Crl:NMRI mice
Experimental: as §1, with “Hematoxilin/eosin (HE)-stained 3 μm-thick sections are prepared from formalin-fixed, paraffin-embedded tissue. From each animal, one HE-stained section per site is histomorphometrically examined.” left out, “Frozen tissue sections (5 μm) are used for oil red O (lipid) staining.” left out
Three different formulations containing 0.5% LCF369 are tested; i) emulsion gel with the penetration enhancer Sepa 09 (batch 92.66.01-ra), ii) emulsion gel without a penetration enhancer (batch 9450-05-Ra), and iii) a formulation containing particulate compound (“follicular targeting formulation”). They are evaluated after 9 or 13 applications.

[7] = LCF369-treated vs vehicle-treated skin

## CC(C)CCNC(=O)c1ccc(N2CCN(C(=O)c3ccccc3[N+](=O)[O-])CC2)nn1 [6-[4-(2-NITROBENZOYL)PIPERAZIN-1-YL]PYRIDAZINE-3-CARBOXYLIC ACID (3-METHYLBUTYL)AMIDE]
[1]
  Mouse Microsome 10% remaining @ 10 μM: 8%

## COC(=O)C(CC(C)C)NC(=O)c1ccc(N2CCN(C(=O)c3ccccc3C(F)(F)F)CC2)nn1 (stereo not shown) [4-METHYL-2-({6-[4-(2-TRIFLUOROMETHYLBENZOYL)PIPERAZIN-1-YL]-PYRIDAZINE-3-CARBONYL}AMINO)PENTANOIC ACID METHYL ESTER]
[1]
  Mouse Microsome 10% remaining @ 10 μM: 69%

## O=C(NCCCC1CC1)c1ccc(N2CCN(Cc3cc(F)ccc3C(F)(F)F)CC2)nn1 [6-[4-(5-FLUORO-2-TRIFLUOROMETHYLBENZYL)PIPERAZIN-1-YL]PYRIDAZINE-3-CARBOXYLIC ACID (3-CYCLOPROPYLPROPYL)AMIDE]
[1]
  Mouse Microsome 10% remaining @ 10 μM: 8%

## CC(c1ccccc1C(F)(F)F)N1CCN(c2ccc(C(=O)NCCC3CC3)nn2)CC1.Cl (stereo not shown) [6-{4-[1-(2-TRIFLUOROMETHYLPHENYL)ETHYL]PIPERAZIN-1-YL}-PYRIDAZINE-3-CARBOXYLIC ACID (2-CYCLOPROPYLETHYL)AMIDE HYDROCHLORIDE]
[1]
  Mouse Microsome 10% remaining @ 10 μM: 24%

## O=C(NCCC1CC1)c1ccc(N2CCN(C(=O)Cc3ccccc3C(F)(F)F)CC2)nn1 [6-{4-[2-(2-TRIFLUOROMETHYLPHENYL)ACETYL]PIPERAZIN-1-YL}PYRIDAZINE-3-CARBOXYLIC ACID (2-CYCLOPROPYLETHYL)AMIDE]
[1]
  Mouse Microsome 10% remaining @ 10 μM: 10%

## O=C(NCCC1CC1)c1ccc(N2CCN(Cc3ccccc3C(F)(F)F)CC2)nn1 [6-[4-(2-TRIFLUOROMETHYLBENZYL)PIPERAZIN-1-YL]PYRIDAZINE-3-CARBOXYLIC ACID (2-CYCLOPROPYLETHYL)AMIDE]
[1]
  Mouse Microsome 10% remaining @ 10 μM: 12%

## O=C(NCCC1CC1)c1ccc(N2CCN(Cc3ccc(Cl)cc3Cl)CC2)nn1 [6-[4-(2,4-DICHLOROBENZYL)-PIPERAZIN-1-YL]PYRIDAZINE-3-CARBOXYLIC ACID (2-CYCLOPROPYLETHYL)AMIDE]
[1]
  Mouse Microsome 10% remaining @ 10 μM: 8%

## CC(C)CCNC(=O)c1ccc(N2CCN(C(=O)c3c(C(F)(F)F)nnn3Cc3ccccc3)CC2)nn1 [6-[4-(3-BENZYL-5-TRIFLUOROMETHYL-3H-[1,2,3]TRIAZOLE-4-CARBONYL)PIPERAZIN-1-YL]PYRIDAZINE-3-CARBOXYLIC ACID (3-METHYLBUTYL)AMIDE]
[1]
  Mouse Microsome 10% remaining @ 10 μM: 61%

## O=C(NCCC1CC1)c1ccc(N2CCN(C(=O)c3cc(F)ccc3C(F)(F)F)CC2)nn1 [LCF369, 6-[4-(5-Fluoro-2-trifluoromethylbenzoyl)piperazin-1-yl]pyridazine-3-carboxylic acid (2-cyclopropylethyl)amide]
Sebaceous glands [2]; after 4 days
  mean size decrease: 35%
Sebaceous glands [2]; after 6 days
  mean size decrease: 35%
Sebaceous glands [2]; after 8 days
  mean size decrease: 72%
Sebaceous glands [2]; topical application, compared to untreated skin
  Maximum reduction in sizes and numbers of sebaceous glands: up to 75%
Sebaceous glands [3]
  Number of sebaceous glandular units: 10.1 (4.0)*** per mm^2 dermis
Sebaceous glands [4]; 0.1% LCF369, 8 days
  atrophogenic effects: little or no atrophogenic effects
Sebaceous glands [4]; 1.0% LCF369, 8 days, p<0.01
  reduction of sebaceous glands in sizes (fold): about 1.9 fold
Sebaceous glands [4]; 1.0% LCF369, distant sites
  differences in numbers and sizes of sebaceous glands at sites distant from the treatments: no significant differences
Sebaceous glands [4]; [7]
  histochemical (HE) staining of treated skin, FIG. 2B: fewer and smaller (atrophic) sebaceous glands
  oil red O (lipid) staining of treated skin, FIG. 3B: significantly reduced lipids associated with hair shafts
Sebaceous glands [5]; 1% LCF369, on day 24
  atrophogenic effect from LCF369 treatment: substantially reduced
Sebaceous glands [5]; 1% LCF369, on day 41
  atrophogenic effect from LCF369 treatment: almost completely absent
Sebaceous glands [6]; 0.5% LCF369 formulation containing SEPA-9 vs placebo-treated (vehicle-treated) samples
  hyper/parakeratosis and acanthosis in skin sections: more pronounced
Sebaceous glands [6]; 0.5% LCF369 formulation containing penetration enhancer SEPA-9
  effect on sebaceous glands: significant atrophy of sebaceous glands

## O=C(NCCCc1ccc(F)cc1)Nc1ccc(N2CCN(C(=O)c3ccccc3C(F)(F)F)CC2)nn1 [1-[3-(4-Fluorophenyl)propyl]-3-{6-[4-(2-trifluoromethylbenzoyl)piperazin-1-yl]pyridazin-3-yl}urea]
[1]
  Mouse Microsome 10% remaining @ 10 μM: 14%

## O=C(Nc1ccc(F)cc1)Nc1ccc(N2CCN(C(=O)c3ccccc3C(F)(F)F)CC2)nn1 [1-(4-FLUOROPHENYL)-3-{6-[4-(2-TRIFLUOROMETHYLBENZOYL)PIPERAZIN-1-YL]-PYRIDAZIN-3-YL}UREA]
[1]
  Mouse Microsome 10% remaining @ 10 μM: 82%

## CCOC(=O)CCNC(=O)Nc1ccc(N2CCN(C(=O)c3ccccc3C(F)(F)F)CC2)nn1 [3-(3-{6-[4-(2-TRIFLUOROMETHYLBENZOYL)PIPERAZIN-1-YL]-PYRIDAZIN-3-YL}-UREIDO)PROPIONIC ACID ETHYL ESTER]
[1]
  Mouse Microsome 10% remaining @ 10 μM: 18%

## O=C(NCCC1CC1)c1ccc(N2CCN(Cc3ccc(F)cc3Cl)CC2)nn1 [6-[4-(2-CHLORO-4-FLUOROBENZYL)PIPERAZIN-1-YL]PYRIDAZINE-3-CARBOXYLIC ACID (2-CYCLOPROPYLETHYL)AMIDE]
[1]
  Mouse Microsome 10% remaining @ 10 μM: 11%

## O=C(NCCC1CC1)c1ccc(N2CCN(C(=O)C3(O)CC3)CC2)nn1 [6-[4-(1-HYDROXYCYCLOPROPANECARBONYL)PIPERAZIN-1-YL]PYRIDAZINE-3-CARBOXYLIC ACID (2-CYCLOPROPYLETHYL)AMIDE]
[1]
  Mouse Microsome 10% remaining @ 10 μM: 73%

## O=C(NCCc1ccc(F)cc1F)c1ccc(N2CCN(C(=O)c3ccccc3C(F)(F)F)CC2)nn1 [6-[4-(2-TRIFLUOROMETHYLBENZOYL)PIPERAZIN-1-YL]PYRIDAZINE-3-CARBOXYLIC ACID [2-(2,4-DIFLUOROPHENYL)ETHYL]AMIDE]
[1]
  Mouse Microsome 10% remaining @ 10 μM: 5%
